The results in this text go back to patent US20210177869A1, “METHODS AND COMBINATIONS FOR MODULATING TOLERANCE TO OPIATES, OPIOIDS OR OPIOID ANALGESICS AND TREATING ACUTE AND CHRONIC PAIN” (CHINA MEDICAL UNIVERSITY, priority 2018, published 2021).

Structures are written as SMILES.

Assay type in all cases: in vivo
For experiment [1], the system named is morphine-dependent mice. Put plainly: Naloxone-precipitated withdrawal jumping in mice with chronic morphine dependence. The note with it: for naloxone-induced jumping behavior: naloxone 5 mg/kg + SSZ 30 mg/kg or capsazepine 5 mg/kg.
Procedure: Chronic morphine dependence was induced by repeated injections for four consecutive days with an escalating dose schedule. Mice received morphine twice daily (morning and afternoon) for 4 days (day 1: 12 mg/kg and 25 mg/kg; day 2: 25 mg/kg and 50 mg/kg; day 3: 50 mg/kg and 75 mg/kg; day 4: 75 mg/kg and 100 mg/kg). On the testing day (day 5), a final morphine dose (50 mg/kg) was administered before exam.
A single dose of naloxone (5 mg/kg) was administered to all mice 60 mins after the final morphine dose. Immediately, following with naloxone injection, animals were placed into individual Plexiglas observation cylinders. Withdrawal jumping response symptoms were recorded and the frequency of jumps for each mouse was summed over one hour.
It was first determined whether system xc^− contributes to opioid dependence. WT and xCT KO mice were received the repeated injections for four consecutive days with an escalating dose schedule for the induction of chronic morphine dependence. Mice received morphine twice daily (morning and afternoon) for 4 days (day 1: 12 mg/kg and 25 mg/kg; day 2: 25 mg/kg and 50 mg/kg; day 3: 50 mg/kg and 75 mg/kg; day 4: 75 mg/kg and 100 mg/kg). On the testing day (day 5), a final morphine dose (50 mg/kg) was administered before naloxone-induced acute withdrawal syndromes. […] To observe the effect of system xc^− inhibits in opioid withdrawal, mice with chronic morphine dependence were randomly divided into the following groups (sample size N=6 in each group): group 1: control mice without any treatment; group 2: morphine-dependent mice with vehicle treatment; group 3: morphine-dependent mice with naloxone (5 mg/kg) treatment; group 4: morphine-dependent mice with naloxone (5 mg/kg)+methadone (10 mg/kg) treatment; group 5: morphine-dependent mice with naloxone (5 mg/kg)+SSZ (30 mg/kg) treatment; and group 6: morphine-dependent mice with naloxone (5 mg/kg)+capsazepine (5 mg/kg).
Experiment [2] concerns mice. Put plainly: Opioid tolerance, morphine percent maximal possible effect (% MPE) over 7 days. Particulars: WT mice; for development of tolerance, in comparison to the morphine alone group / number of days of morphine-induced analgesic effect, in comparison to the morphine alone group: co-treatment with morphine 20 mg/kg/day, SSZ 60 mg/kg/day or capsazepine 10 mg/kg/day, twice daily 7 days. On the procedure: To test whether system xc^− plays a role in opioid tolerance, WT and xCT KO mice were injected intraperitoneally with morphine twice daily and tested on 7 days continuously for determination of their respective morphine percent maximal possible effect (% MPE). Analgesic effect was expressed as % MPE, where % MPE=(test−baseline latency)/(cutoff−baseline)×100. […] Next, the WT mice were received the co-administration of system xc^− inhibitor, SSZ or capsazepine, and morphine twice daily for one-week observation.

Experiment [3] concerns mice. Put plainly: Opioid-induced constipation, fecal collection and stool weight. Particulars: wild-type mice; SSZ 30 mg/kg, morphine 10 mg/kg or combination, ip, 7 days. On the procedure: Fecal collections and the stool weighed were recorded before and after morphine and/or SSZ administration. The fecal was collected every two days.
Opioid-induced constipation is a side effect for using opioid pain relief medication.

The test system of experiment [4] is mice. Put plainly: Mechanical allodynia, von Frey filament test. The note with it: for withdraw threshold in von Frey filament test, compared to vehicle: wild-type mice, SSZ 30 mg/kg/day, morphine 10 mg/kg/day, methadone 5 mg/kg/day or combinations for 8 days; for withdraw threshold in von Frey filament test: WT and xCT KO mice (both genotypes), ip morphine 10 mg/kg/day or methadone 4 mg/kg/day for 7 days. On the procedure: (§1) The thermal hyperalgesia was evaluated by placing the mice in a 1000 ml beaker and on the 56±2° C. hot plate with the maximum of 35 second to prevent tissue damage. The time is recorded when the mice jumps on to the edge of the beaker, the value is considered as the withdrawal threshold. A customized transparent acrylic chamber with the size of 20×20×20 cm and 5 mm thick acrylic with 2 mm diameter holes throughout the entire platform is used to determine the mechanical allodynia and thermal hyperalgesia. Mice were placed in the chamber to evaluate the mechanical allodynia by applying a 0.6 g pressure von Frey hair (Touch-Test Sensory Evaluator, North Coast Medical, Inc) to the hind paws of the mice for five times with a five second interval. If the mice hind paw is withdrawn from the platform over three times, the pressure of the von Frey hair will be recorded and regarded as the withdrawal threshold.

The test system of experiment [5] is mice. Put plainly: Thermal hyperalgesia, hot plate test. Particulars: for latencies of the first sign of pain in the hot-plate test, compared to vehicle: wild-type mice, SSZ 30 mg/kg/day, morphine 10 mg/kg/day, methadone 5 mg/kg/day or combinations for 8 days; for latency of first sign of pain in the hot-plate test: WT and xCT KO mice (both genotypes), ip morphine 10 mg/kg/day or methadone 4 mg/kg/day for 7 days; for analgesic effect in xCT KO mice compared to WT mice: hot plate and von Frey tests, morphine 10 mg/kg/day or methadone 4 mg/kg/day for 7 days. The protocol: as §1
(Hot-plate and tail-flick tests time the reaction to a heat stimulus.)

On to `O=C(O)c1cc(/N=N/c2ccc(S(=O)(=O)Nc3ccccn3)cc2)ccc1O` [SSZ, sulfasalazine], for which, in experiment [1], the naloxone-induced jumping behavior entry was “inhibited naloxone-induced jumping behavior”. Besides, in experiment [2], the “development of tolerance, in comparison to the morphine alone group” value is on record as “significantly attenuated the development of tolerance” and the “number of days of morphine-induced analgesic effect, in comparison to the morphine alone group” value is recorded as “prolong the number of days of morphine-induced analgesic effect”. The “opioid-induced constipation / defecation (stool weight)” value in experiment [3] was “didn't decreased or increased defecation”. For the same compound, the “withdraw threshold in von Frey filament test, compared to vehicle” value (“withdraw threshold … compared to vehicle” for short) in experiment [4] is reported as “more than those in vehicle-treated mice”. Besides, in experiment [5], the “latencies of the first sign of pain in the hot-plate test, compared to vehicle” value (shortened to “latencies … compared to vehicle”) was “more than those in vehicle-treated mice”.
On to `Oc1cc2c(cc1O)CN(C(=S)NCCc1ccc(Cl)cc1)CCC2` [capsazepine], for which the naloxone-induced jumping behavior entry in experiment [1] is “inhibited naloxone-induced jumping behavior”. Further, in experiment [2], the “development of tolerance, in comparison to the morphine alone group” value is “significantly attenuated the development of tolerance” and the “number of days of morphine-induced analgesic effect, in comparison to the morphine alone group” value was “prolong the number of days of morphine-induced analgesic effect”.
For the compound `CCC(=O)C(CC(C)N(C)C)(c1ccccc1)c1ccccc1` (stereo not shown) [methadone], in experiment [4], the “withdraw threshold in von Frey filament test” value was “significantly increased” and the “withdraw threshold … compared to vehicle” value was “more than those in vehicle-treated mice”. For the same compound, in experiment [5], the “latency of first sign of pain in the hot-plate test” value is reported as “significantly increased”; the “analgesic effect in xCT KO mice compared to WT mice” value is given as “higher than that in WT mice”; the “latencies … compared to vehicle” value is “more than those in vehicle-treated mice”.
Consider `CN1CC[C@]23c4c5ccc(O)c4O[C@H]2[C@@H](O)C=C[C@H]3[C@H]1C5` [morphine], for which, in experiment [2] (morphine 20 mg/kg/day ip twice daily, 7 days), the “opioid tolerance (% MPE)” value is “significant opioid tolerance on day 3”. Also, the “opioid-induced constipation / defecation (stool weight)” value in experiment [3] is on record as “developed the opioid-induced constipation”. Besides, in experiment [4], the “withdraw threshold in von Frey filament test” value is listed as “significantly increased” and the “withdraw threshold … compared to vehicle” value is given as “more than those in vehicle-treated mice”. In addition, in experiment [5], the “latency of first sign of pain in the hot-plate test” value is “significantly increased”; the “analgesic effect in xCT KO mice compared to WT mice” value was “higher than that in WT mice”; the “latencies … compared to vehicle” value is listed as “more than those in vehicle-treated mice”.
For the compound `C=CCN1CC[C@]23c4c5ccc(O)c4O[C@H]2C(=O)CC[C@@]3(O)[C@H]1C5` [naloxone], in experiment [1] (naloxone 5 mg/kg, observed one hour), the “jumping behavior (withdrawal)” value is reported as “significant jumping behavior compared to other groups”.
